The values that follow come from article PMC9963121, “Development of Combretastatin A-4 Analogues as Potential Anticancer Agents with Improved Aqueous Solubility” (Molecules, 2023).

One data set relates to MCF-7 breast cancer cell. The data set can be described thus: MTT cell growth inhibition assay, MCF-7 breast cancer cells. The format is cell-based. The settings on record: Homo sapiens, MCF7, mean ± SD of three experiments. The text has this: (§1) Initially, we designed and synthesised seven compounds—9a and 12a1–12a6—and evaluated the anticancer activity and aqueous solubility. We evaluated the cytotoxic effects of these stilbene nitrile analogues against a panel of four human cancer cell lines (HCT-116, BEL-7402, MCF-7 and AGS) and two human non-cancerous normal cell lines (L-02 and MCF-10A), using CA-4 as a control. The compounds were screened for aqueous solubility in 0.01 M PBS using a high throughput UV method. […] It is possible that the size of the nitrogen heterocycle had little effect on the activity of these compounds. […] The aqueous solubility of all the compounds 12a1–12a6 was higher than that of 9a, particularly that of 12a1 and 12a2 containing piperazine rings. […] Of the six compounds with improved aqueous solubility, 12a1 had the best activity.
(§2) All human cell lines were used in this study. AGS gastric cancer cell, BEL-7402 liver cancer cell, HCT-116 colorectal cancer cell, L-02 normal liver cell, MCF-7 breast cancer cell, and MCF-10A normal breast cell were initially purchased from American Type Culture Collection (ATCC, Manassas, VA, USA). RPMI-1640 media, DMEM and FBS, were provided by Gibco Company. The cells were maintained in DMEM or RPMI-1640, supplemented with 10% FBS, 100 IU/mL penicillin and […] streptomycin, and at 37 °C in a humidified atmosphere containing 5% CO2.
(§3) The experiment was carried out according to the method of reference.

Data set [1] concerns MCF-10A normal breast cell. The data set is described as follows: MTT cell growth inhibition assay, MCF-10A normal breast cells. The format is cell-based. The settings on record: Homo sapiens, mean ± SD of three experiments, read-out: IC50 MCF-10A Normal Breast Epithelial Cells.
From the text: as §1, §2, §3

The subject of the next data set is AGS gastric cancer cell. The data set is described as follows: MTT cell growth inhibition assay, AGS gastric cancer cells. The format is cell-based. The settings on record: Homo sapiens, mean ± SD of three experiments.
From the text: as §1, §2, §3

Data set [2] concerns BEL-7402 liver cancer cell. The data set can be described thus: MTT cell growth inhibition assay, BEL-7402 liver cancer cells. The format is cell-based. The conditions noted are these: Homo sapiens, mean ± SD of three experiments, read-out: IC50 BEL-7402 Hepatoma Cells.
From the text: as §1, §2, §3

A short description of data set [3]: Compound stability in rat plasma, HPLC. The format is in vitro ADME. The conditions noted are these: 37 °C. Here is the method:
Blood was collected from SD rats (200–250 g, male and female, Animal Experimental Center of Yanbian University) into heparin tubes, and supernatant plasma was collected after centrifugation.
A certain amount of 9a and 12a1 were accurately weighed and mixed with rat plasma. After incubation at 37 ℃ for 0, 6, 12, 24 and 36 h, the plasma samples were treated with methanol and analyzed by HPLC to determine their stability in plasma.
A HITACHI Primaide HPLC liquid chromatography system was equipped and used for all analyses. Chromatographic separation was performed on a Welch Ultimate XB-C18 column (3.9 mm × 150 mm, 5 μm; Welch, China). The analytes were eluted using a gradient method with a flow rate of 1 mL/min. Mobile phase A was Ultra pure water, and mobile phase B was methanol according to the following gradient: (1) The gradient elution conditions of 9a: 0 to 8 min, 55% to 67% B; 8.1 to 15 min, 67% to 90% B; 15.1 to 25 min, 55% B. (2) The gradient elution conditions of 12a1: 0 to 9 min, 55% to 65% B; 9.1 to 12 min, 65% to 75% B; 12.1 to 15 min, 75% to 85% B; 15.1 to 20 min, 90% B; 20.1 to 30 min, 55% B. The injection volume was 3 μL. The column temperature was set at 40 °C. […]
1.6. Plasma stability assessment
Prepare plasma:blood was collected from SD rats (200-250g, male and female, Animal Experimental Center of Yanbian University) into heparin tubes, and supernatant plasma was collected after centrifugation.
A certain amount of 9a and 12a1 were accurately weighed and mixed with rat plasma.
After incubation at 37℃ for 0 h, 6 h, 12 h, 24 h and 36 h, the plasma samples were treated with methanol and analyzed by HPLC to determine their stability in plasma.
Analytical instrument and conditions:
A HITACHI Primaide HPLC liquid chromatography system equipped was used for all analyses. Chromatographic separation was performed on a Welch Ultimate XB-C18 column (3.9 mm × 150 mm, 5 μm; Welch, China). The analytes were eluted using a gradient method with a flow rate of 1 mL/min. Mobile phase A was Ultra pure water, and mobile phase B was methanol according to the following gradient: (1). The gradient elution conditions of 9a: 0 to 8 minutes, 55% to 67% B; 8.1 to 15 minutes, 67% to 90% B; 15.1 to 25 minutes, 55% B. (2). The gradient elution conditions of […]

The next data set relates to L-02 normal liver cell. The data set can be described thus: MTT cell growth inhibition assay, L-02 normal liver cells. It counts as cell-based. The conditions noted are these: Homo sapiens, mean ± SD of three experiments.
From the text: as §1, §2, §3

The nature of data set [4]: Drug-plasma protein binding rate, equilibrium dialysis. It counts as in vitro ADME. The settings on record: rat, equilibrium dialysis vs phosphate buffer pH 7.4, 4 °C. How it is done:
Compounds at 90 μM concentration were mixed with rat plasma, and the mixtures were subjected to equilibrium dialysis versus phosphate buffer (pH 7.4) at 4 °C for 48 h. The dialysis membrane of molecular weight cut off 1 kDa was used. Dialysis experiments were done in triplicate. On completion of the dialysis period, absorb a certain amount of buffer and plasma, respectively, and add methanol to treat the sample. Dialysis samples were analysed by HPLC. The plasma protein binding rate of the compound was calculated as follows: protein binding rate/% = (plasma drug concentration inside dialysis bag—dialysate drug concentration outside dialysis bag)/plasma drug concentration inside dialysis bag × 100%. […]
injection volume was 3 μL. The column temperature was set at 40℃.
1.7. The drug-plasma protein binding rate assessment
Compound 12a1 at 90 μM concentration were mixed with rats plasma. The mixtures were subjected to equilibrium dialysis versus phosphate buffer pH 7.4 buffer at 4℃ for 48 hour using equilibrium dialysis. The dialysis membrane of molecular weight cutoff 1 kDa was used. […] Dialysis samples were analyzed by HPLC, The plasma protein binding rate of the compound was calculated as follows: protein binding rate ∕ % = (plasma drug concentration inside dialysis bag − dialysate drug concentration outside dialysis bag) ∕ plasma drug concentration inside dialysis bag × […]
On the technique in general: Equilibrium dialysis compares concentrations on both sides of a semipermeable membrane.

A word on the IC50: it is the concentration that gives 50% inhibition. As a reminder, the fraction unbound is free concentration divided by total concentration. In the case of `COc1cc(/C(C#N)=C/c2ccc(NC(=O)CN3CCN(C)CC3)cc2)cc(OC)c1OC` [12a1], the IC50 with MCF-7 breast cancer cell came to 16.1 ± 2.7 µM; in data set [1], 20.9 ± 0.78 µM; with AGS gastric cancer cell it was 10.7 ± 0.52 µM; in data set [2], 6.36 ± 0.61 µM; in the data set with L-02 normal liver cell it was 32.7 ± 1.44 µM. The “Decrease of HPLC peak area in rat plasma” value in data set [3] (within 36 h, UV 294 nm) is ~22%. Also, the “Plasma stability (in words)” value in data set [3] (rat plasma, 24 h) was “retained plasma stability over 24 h”. In data set [4], the fraction unbound at 48 h, 90 μM was 0.393.
